Test results taken from patent publication US11591341B2 (ALIGOS THERAPEUTICS, INC., priority 2019, dated 2023).

Test system: HBV
Assay: HBV-DNA Antiviral Assay Using HepG2.117 Cells (intracellular HBV DNA by qPCR)
Type: cell-based, hepatitis B virus (genotype D)
Conditions: Hepatitis B virus, HepG2.117
How it was run: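 Endpoint: qPCR copy number of intracellular HBV DNA after 3-day compound exposure, with inhibition set relative to the 2% DMSO control. The cells were doxycycline-free HepG2.117 carrying a Tet-off genotype D genome, dosed at nine 4-fold dilutions. A duplicate plate gave ATP-based viability (CC50).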

C[C@@H](NC(=O)c1c2n(c(=O)n1-c1ccc(OC3CC3)cc1)CCN(C(=O)c1ccc(Br)c(Cl)c1)C2)c1ccc(OCC#N)cc1F (stereo in doubt) [Example 342, 7-(4-bromo-3-chloro-benzoyl)-2-[4-(cyclopropxy)phenyl]-3-oxo-N-[rac-(1R)-1-[4-(cyanomethoxy)-2-fluoro-phenyl]ethyl]-6,8-dihdyro-5H-imidazo[1,5-a]pyrazine-1-carboxamide] was tested. Which EC50 did it give?
Its EC50 is 100 to 500 nM.

With C[C@H](NC(=O)c1c2n(c(=O)n1-c1ccc(OC3CC3)cc1)CCN(C(=O)c1ccc(Br)c(Cl)c1)C2)c1ccc(OCC#N)cc1F (stereo in doubt) [Example 343, 7-(4-bromo-3-chloro-benzoyl)-2-[4-(cyclopropoxy)phenyl]-3-oxo-N-[rac-(1S)-1-[4-(cyanomethoxy)-2-fluoro-phenyl]ethyl]-6,8-dihydro-5H-imidazo[1,5-a]pyrazine-1-carboxamide] as the compound, how does the EC50 read?
The EC50 was 100 to 500 nM.

How did the EC50 turn out when C[C@@H](NC(=O)c1c2n(c(=O)n1-c1ccc(OCC(F)(F)F)cc1)CCN(C(=O)c1ccc(Br)c(Cl)c1)C2)c1ccc(OCC#N)cc1F (stereo in doubt) [Example 344, 7-(4-bromo-3-chloro-benzoyl)-3-oxo-N-[rac-(1R)-1-[4-(cyanomethoxy)-2-fluoro-phenyl]ethyl]-2-[4-(2,2,2-trifluoroethoxy)phenyl]-6,8-dihydro-5H-imidazo[1,5-a]pyrazine-1-carboxamide] was run?
Its EC50 is 500 to 5000 nM.

C[C@H](NC(=O)c1c2n(c(=O)n1-c1ccc(OCC(F)(F)F)cc1)CCN(C(=O)c1ccc(Br)c(Cl)c1)C2)c1ccc(OCC#N)cc1F (stereo in doubt) [Example 345, 7-(4-bromo-3-chloro-benzoyl)-3-oxo-N-[rac-(1S)-1-[4-(cyanomethoxy)-2-fluoro-phenyl]ethyl]-2-[4-(2,2,2-trifluoroethoxy)phenyl]-6,8-dihydro-5H-imidazo[1,5-a]pyrazine-1-carboxamide] was tested. Which EC50 did it give?
The EC50 was 100 to 500 nM.

With C[C@@H](NC(=O)c1c2n(c(=O)n1-c1ccc(OC3CC3)cc1)CCN(C(=O)c1ccc(Br)c(Cl)c1)C2)c1ccc(OC2COC2)cc1F (stereo in doubt) [Example 346, 7-(4-bromo-3-chloro-benzoyl)-2-[4-(cyclopropoxy)phenyl]-3-oxo-N-[rac-(1R)-1-[2-fluoro-4-(oxetan-3-yloxy)phenyl]ethyl]-6,8-dihydro-5H-imidazo[1,5-a]pyrazine-1-carboxamide] as the compound, how does the EC50 read?
Its EC50 is 100 to 500 nM.

Which EC50 does the source give for C[C@H](NC(=O)c1c2n(c(=O)n1-c1ccc(OC3CC3)cc1)CCN(C(=O)c1ccc(Br)c(Cl)c1)C2)c1ccc(OC2COC2)cc1F (stereo in doubt) [Example 347, 7-(4-bromo-3-chloro-benzoyl)-2-[4-(cyclopropoxy)phenyl]-3-oxo-N-[rac-(1S)-1-[2-fluoro-4-(oxetan-3-yloxy)phenyl]ethyl]-6,8-dihydro-5H-imidazo[1,5-a]pyrazine-1-carboxamide] here?
Its EC50 is 100 to 500 nM.

With C[C@H](Oc1ccc(CNC(=O)c2c3n(c(=O)n2-c2ccc(OCC(F)(F)F)cc2)CCN(C(=O)c2ccc(Br)c(Cl)c2)C3)c(F)c1)C(N)=O (stereo in doubt) [Example 353, 7-(4-bromo-3-chloro-benzoyl)-N-[[2-fluoro-4-[rac-(1S)-2-amino-1-methyl-2-oxo-ethoxy]phenyl]methyl]-3-oxo-2-[4-(2,2,2-trifluoroethoxy)phenyl]-6,8-dihydro-5H-imidazo[1,5-a]pyrazine-1-carboxamide] as the compound, how does the EC50 read?
Its EC50 is 500 to 5000 nM.

For C[C@@H](Oc1ccc(CNC(=O)c2c3n(c(=O)n2-c2ccc(OCC(F)(F)F)cc2)CCN(C(=O)c2ccc(Br)c(Cl)c2)C3)c(F)c1)C(N)=O (stereo in doubt) [Example 354, 7-(4-bromo-3-chloro-benozyl)-N-[[2-fluoro-4-[rac-(1R)-2-amino-1-methyl-2-oxo-ethoxy]phenyl]methyl]-3-oxo-2-[4-(2,2,2-trifluoroethoxy)phenyl]-6,8-dihydro-5H-imidazo[1,5-a]pyrazine-1-carboxamide], which EC50 is on record?
The EC50 was 500 to 5000 nM.

For C[C@@H](Oc1ccc([C@@H](C)NC(=O)c2c3n(c(=O)n2-c2ccc(OC4CC4)cc2)CCN(C(=O)c2ccc(Br)c(Cl)c2)C3)c(F)c1)C(N)=O (stereo in doubt) [Example 355, 7-(4-bromo-3-chloro-benzoyl)-2-[4-(cyclopropoxy)phenyl]-3-oxo-N-[rac-(1R)-1-[2-fluoro-4-[rac-(1R)-2-amino-1-methyl-2-oxo-ethoxy]phenyl]ethyl]-6,8-dihydro-5H-imidazo[1,5-a]pyrazine-1-carboxamide], which EC50 is on record?
The EC50 was 500 to 5000 nM.

With C[C@H](Oc1ccc([C@@H](C)NC(=O)c2c3n(c(=O)n2-c2ccc(OC4CC4)cc2)CCN(C(=O)c2ccc(Br)c(Cl)c2)C3)c(F)c1)C(N)=O (stereo in doubt) [Example 356, 7-(4-bromo-3-chloro-benzoyl)-2-[4-(cyclopropoxy)phenyl]-3-oxo-N-[rac-(1R)-1-[2-fluoro-4-[rac-(1S)-2-amino-1-methyl-2-oxo-ethoxy]phenyl]ethyl]-6,8-dihydro-5H-imidazo[1,5-a]pyrazine-1-carboxamide] as the compound, how does the EC50 read?
Its EC50 is 100 to 500 nM.

How did the EC50 turn out when C[C@H](NC(=O)c1c2n(c(=O)n1-c1ccc(OC3CC3)cc1)CCN(C(=O)c1ccc(Br)c(Cl)c1)C2)c1ccc(O[C@H](C)C(N)=O)cc1F (stereo in doubt) [Example 357, 7-(4-bromo-3-chloro-benzoyl)-2-[4-(cyclopropoxy)phenyl]-3-oxo-N-[rac-(1S)-1-[2-fluoro-4-[rac-(1R)-2-amino-1-methyl-2-oxo-ethoxy]phenyl]ethyl]-6,8-dihydro-5H-imidazo[1,5-a]pyrazine-1-carboxamide] was run?
The EC50 was 100 to 500 nM.

Which EC50 does the source give for C[C@H](Oc1ccc([C@H](C)NC(=O)c2c3n(c(=O)n2-c2ccc(OC4CC4)cc2)CCN(C(=O)c2ccc(Br)c(Cl)c2)C3)c(F)c1)C(N)=O (stereo in doubt) [Example 358, 7-(4-bromo-3-chloro-benzoyl)-2-[4-(cyclopropoxy)phenyl]-3-oxo-N-[rac-(1S)-1-[2-fluoro-4-[rac-(1S)-2-amino-1-methyl-2-oxo-ethoxy]phenyl]ethyl]-6,8-dihydro-5H-imidazo[1,5-a]pyrazine-1-carboxamide] here?
The EC50 was < 100 nM.

How did the EC50 turn out when C[C@@H](Oc1ccc([C@@H](C)NC(=O)c2c3n(c(=O)n2-c2ccc(OCC(F)(F)F)cc2)CCN(C(=O)c2ccc(Br)c(Cl)c2)C3)c(F)c1)C(N)=O (stereo in doubt) [Example 359, 7-(4-bromo-3-chloro-benzoyl)-3-oxo-N-[rac-(1R)-1-[2-fluoro-4-[rac-(1R)-2-amino-1-methyl-2-oxo-ethoxy]phenyl]ethyl]-2-[4-(2,2,2-trifluoroethoxy)phenyl]-6,8-dihydro-5H-imidazo[1,5-a]pyrazine-1-carboxamide] was run?
Its EC50 is 500 to 5000 nM.

Which EC50 does the source give for C[C@H](Oc1ccc([C@@H](C)NC(=O)c2c3n(c(=O)n2-c2ccc(OCC(F)(F)F)cc2)CCN(C(=O)c2ccc(Br)c(Cl)c2)C3)c(F)c1)C(N)=O (stereo in doubt) [Example 360, 7-(4-bromo-3-chloro-benzoyl)-3-oxo-N-[rac-(1R)-1-[2-fluoro-4-[rac-(1S)-2-amino-1-methyl-2-oxo-ethoxy]phenyl]ethyl]-2-[4-(2,2,2-trifluoroethoxy)phenyl]-6,8-dihydro-5H-imidazo[1,5-a]pyrazine-1-carboxamide] here?
Its EC50 is 500 to 5000 nM.

How did the EC50 turn out when C[C@H](NC(=O)c1c2n(c(=O)n1-c1ccc(OCC(F)(F)F)cc1)CCN(C(=O)c1ccc(Br)c(Cl)c1)C2)c1ccc(O[C@H](C)C(N)=O)cc1F (stereo in doubt) [Example 361, 7-(4-bromo-3-chloro-benzoyl)-3-oxo-N-[rac-(1S)-1-[2-fluoro-4-[rac-(1R)-2-amino-1-methyl-2-oxo-ethoxy]phenyl]ethyl]-2-[4-(2,2,2-trifluoroethoxy)phenyl]-6,8-dihydro-5H-imidazo[1,5-a]pyrazine-1-carboxamide] was run?
The EC50 was 100 to 500 nM.

For C[C@H](Oc1ccc([C@H](C)NC(=O)c2c3n(c(=O)n2-c2ccc(OCC(F)(F)F)cc2)CCN(C(=O)c2ccc(Br)c(Cl)c2)C3)c(F)c1)C(N)=O (stereo in doubt) [Example 362, 7-(4-bromo-3-chloro-benzoyl)-3-oxo-N-[rac-(1S)-1-[2-fluoro-4-[rac-(1S)-2-amino-1-methyl-2-oxo-ethoxy]phenyl]ethyl]-2-[4-(2,2,2-trifluoroethoxy)phenyl]-6,8-dihydro-5H-imidazo[1,5-a]pyrazine-1-carboxamide], which EC50 is on record?
Its EC50 is 100 to 500 nM.

For C[C@H]1Cn2c(c3n(c2=O)C[C@@H](F)CN(Cc2ccccc2)C3=O)CN1C(=O)c1ccc(Br)c(Cl)c1 (stereo in doubt) [Example 371, 13-benzyl-4-(4-bromo-3-chlorobenzoyl)-11-fluoro-4,7,9,13-tetraazatricyclo[7.5.0.0^[2,7]]tetradec-1-ene-8,14-dione], which EC50 is on record?
Its EC50 is < 100 nM.

How did the EC50 turn out when C[C@H]1Cn2c(c3n(c2=O)C[C@H](F)CN(Cc2ccccc2)C3=O)CN1C(=O)c1ccc(Br)c(Cl)c1 (stereo in doubt) [Example 372, 13-benzyl-4-(4-bromo-3-chlorobenzoyl)-11-fluoro-4,7,9,13-tetraazatricyclo[7.5.0.0^[2,7]]tetradec-1-ene-8,14-dione] was run?
Its EC50 is 100 to 500 nM.

C[C@@H]1Cn2c(c3n(c2=O)C[C@@H](F)CN(Cc2ccccc2)C3=O)CN1C(=O)c1ccc(Br)c(Cl)c1 (stereo in doubt) [Example 373, rac-(5R,11S)-13-benzyl-4-(4-bromo-3-chloro-benzoyl)-11-fluoro-5-methyl-4,7,9,13-tetrazatricyclo[7.5.0.0^2,7]tetradec-1-ene-8,14-dione] was tested. Which EC50 did it give?
Its EC50 is 100 to 500 nM.

For C[C@@H]1Cn2c(c3n(c2=O)C[C@H](F)CN(Cc2ccccc2)C3=O)CN1C(=O)c1ccc(Br)c(Cl)c1 (stereo in doubt) [Example 374, rac-(5R,11R)-13-benzyl-4-(4-bromo-3-chloro-benzoyl)-11-fluoro-5-methyl-4,7,9,13-tetrazatricyclo[7.5.0.0^2,7]tetradec-1-ene-8,14-dione], which EC50 is on record?
Its EC50 is 100 to 500 nM.
